Consider 4 compounds from US20180353462A1, “[…] AGENTS […] FLAVONOID DERIVATIVES TARGETING KINASES, SIRTUINS AND ONCOGENIC AGENTS FOR THE TREATMENT OF CANCERS” (priority 2015, published 2018).

For series [1], the system named is MOLM-14 acute myeloid leukemia cell line. In words: WST-1 anticancer cell proliferation assay, MOLM-14. It counts as cell-based. Conditions: Table 4, read-out: Acute Myeloid Leukemia cell lines MOLM-14 IC50. How it is done:
(§1) Anticancer activity was tested against several standard cancer cell lines including brain, breast, Kaposi sarcoma, leukemia, lung, melanoma, tenosynovial giant cell tumor, ovarian, pancreatic, colon and prostate cancer. Cells were trypsinized and plated into 96 well plates in 50 μl of media and incubated overnight. The next day approximately 18 hours after plating, 50 μl of media containing the required flavonoid-based pharmaceutical composition was added per well. Cells were plated at a density so that 72 hours post drug addition, the cells will be in log phase (500)-2000 cells/well). The compounds and extracts were solubilized in Dimethyl sulfoxide (DMSO). The cells are allowed to proliferate for 72 hours 37° C. in humidified atmosphere of 5% CO2. The experiment is terminated using WST-1 (Roche®) 10 μl per well and absorbance is read at 450 nm %690 nm. The effect of drugs on growth is assessed as percent of cell viability. The IC50 values were determined from the extract dose versus control growth curves using Graphpad Prism® software. All experiments were carried out in duplicate and the mean results determined.

The target of the next series is T1, FLT3(ITD) (Homo sapiens, UniProt P36888).
T1 construct: In general, full-length constructs were used for small, single domain kinases, and catalytic domain constructs for large multi-domain kinases; fused on or other part: T7 phage fusion or DNA tag for qPCR detection (general statement)
T1 sequence (P36888 1-993): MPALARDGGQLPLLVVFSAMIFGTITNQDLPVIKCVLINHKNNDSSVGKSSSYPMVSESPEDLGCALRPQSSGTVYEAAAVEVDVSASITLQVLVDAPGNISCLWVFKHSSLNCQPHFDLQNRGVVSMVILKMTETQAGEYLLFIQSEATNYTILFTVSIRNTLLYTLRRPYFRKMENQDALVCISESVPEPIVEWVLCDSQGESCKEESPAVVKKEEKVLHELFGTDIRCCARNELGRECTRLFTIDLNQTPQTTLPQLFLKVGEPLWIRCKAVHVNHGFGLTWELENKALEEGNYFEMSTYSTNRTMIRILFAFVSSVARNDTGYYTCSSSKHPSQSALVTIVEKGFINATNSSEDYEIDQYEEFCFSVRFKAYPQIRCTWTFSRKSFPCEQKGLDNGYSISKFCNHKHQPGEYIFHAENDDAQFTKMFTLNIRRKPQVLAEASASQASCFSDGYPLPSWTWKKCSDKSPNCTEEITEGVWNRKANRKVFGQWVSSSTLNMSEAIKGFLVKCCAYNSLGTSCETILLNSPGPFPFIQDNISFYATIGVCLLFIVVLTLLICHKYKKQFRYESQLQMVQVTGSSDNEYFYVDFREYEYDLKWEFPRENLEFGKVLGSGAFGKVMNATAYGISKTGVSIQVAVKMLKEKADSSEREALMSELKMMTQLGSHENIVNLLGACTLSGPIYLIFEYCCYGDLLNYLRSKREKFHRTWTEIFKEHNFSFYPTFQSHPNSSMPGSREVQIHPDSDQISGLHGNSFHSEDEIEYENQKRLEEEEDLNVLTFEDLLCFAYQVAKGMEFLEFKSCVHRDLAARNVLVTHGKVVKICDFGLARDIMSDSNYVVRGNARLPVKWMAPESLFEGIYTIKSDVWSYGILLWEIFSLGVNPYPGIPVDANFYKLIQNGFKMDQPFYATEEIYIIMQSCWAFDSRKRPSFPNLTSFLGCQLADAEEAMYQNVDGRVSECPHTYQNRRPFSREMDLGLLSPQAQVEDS
It counts as binding. Conditions: Table 4; read-out: Acute Myeloid Leukemia Kinases FLT3-ITD IC50. As for the experimental part: (§2) Cannabis flavonoids and their analogs were subjected to kinase inhibition assay. The compounds were first screened at a single concentration of 10 μM in the primary assay. […] To determine the kd or IC50 values, competition binding assays were established, authenticated and executed as described previously. […] See also, Karaman et al., “A Quantitative Analysis Of Kinase Inhibitor Selectivity”, Nat. Biotechnol. […] For most assays, kinases were fused to T7 phage strains (Fabian, supra) and for the other assays, kinases were produced in HEK-293 cells after which they were tagged with DNA for quantitative PCR detection. In general, full-length constructs were used for small, single domain kinases, and catalytic domain constructs for large multi-domain kinases. […] The liganded beads were blocked with excess biotin and washed with blocking buffer (SeaBlock (Pierce), 1% BSA, 0.05% Tween 20, 1 mM DTT) to remove unbound ligand and to reduce non-specific phage binding. […] All reactions were performed in polypropylene 384-well plates in a final volume of 0.04 ml. […] The kinase concentration in the eluates was measured by quantitative PCR. An illustration of the kinase interaction process is presented below. Kd/IC50 values were determined using a standard dose response curve using the hill equation. Curves were fitted using a non-linear least square fit with the Levenberg-Marquardt algorithm.

Another series has as its target T2, FLT3 (Homo sapiens, UniProt P36888).
T2 construct: made in house
T2 sequence (P36888 27-993): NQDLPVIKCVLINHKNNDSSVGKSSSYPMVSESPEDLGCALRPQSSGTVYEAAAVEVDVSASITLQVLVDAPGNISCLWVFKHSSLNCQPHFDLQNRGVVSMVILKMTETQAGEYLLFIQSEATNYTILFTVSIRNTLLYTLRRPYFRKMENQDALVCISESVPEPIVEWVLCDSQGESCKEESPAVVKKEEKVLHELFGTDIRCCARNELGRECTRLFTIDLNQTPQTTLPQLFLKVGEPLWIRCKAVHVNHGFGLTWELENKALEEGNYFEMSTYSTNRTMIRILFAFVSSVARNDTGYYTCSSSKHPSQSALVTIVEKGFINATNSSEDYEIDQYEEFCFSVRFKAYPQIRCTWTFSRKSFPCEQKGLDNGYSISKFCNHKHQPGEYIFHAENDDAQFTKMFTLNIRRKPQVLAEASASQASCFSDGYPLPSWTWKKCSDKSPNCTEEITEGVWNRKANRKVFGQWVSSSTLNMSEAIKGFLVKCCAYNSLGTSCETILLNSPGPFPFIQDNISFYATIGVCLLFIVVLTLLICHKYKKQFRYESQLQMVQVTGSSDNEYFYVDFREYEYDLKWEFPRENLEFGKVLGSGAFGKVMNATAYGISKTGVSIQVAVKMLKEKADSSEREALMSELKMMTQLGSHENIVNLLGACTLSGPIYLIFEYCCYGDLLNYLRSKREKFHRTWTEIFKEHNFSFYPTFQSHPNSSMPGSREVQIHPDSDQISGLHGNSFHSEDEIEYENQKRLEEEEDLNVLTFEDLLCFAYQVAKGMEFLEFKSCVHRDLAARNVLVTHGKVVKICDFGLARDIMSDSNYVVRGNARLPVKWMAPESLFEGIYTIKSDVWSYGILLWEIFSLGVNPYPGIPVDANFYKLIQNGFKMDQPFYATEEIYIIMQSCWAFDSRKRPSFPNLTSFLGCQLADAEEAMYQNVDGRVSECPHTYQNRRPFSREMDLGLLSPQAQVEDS
It counts as binding. Conditions: Table 4; read-out: Acute Myeloid Leukemia Kinases FLT3 IC50. How it is done: as §2

Series [2] has as its system 60 cancer cell line panel. The note with it: US National Cancer Institute 60 cancer cell line panel, NSC:719330; cited from earlier work.
A further series relates to MV4-11 AML. In words: In-vivo efficacy on MV4-11 AML (mice with FLT3-mutated acute myeloid leukemia). Conditions: mouse. The text has this:
The results of the anticancer activity are presented in Tables 3 and 4 (above) and in FIG. 6, Hela cells shown at (A) and CMK cells at (B) and MV4-11 and MOLT-14 acute myeloid leukemia cells.

Another series has as its system MV4-11 (Leukemia). As to the kind of experiment: WST-1 anticancer cell proliferation assay, MV4-11. It counts as cell-based. The note with it: Table 4; read-out: Acute Myeloid Leukemia cell lines MV4-11 IC50. As for the experimental part:
as §1

The next series concerns Normal Bone marrow. In words: Cell viability, normal bone marrow. The note with it: Table 4. It counts as cell-based. How it is done:
as §1, with “Bioactivity of the above-described compounds has been verified by an anticancer cell proliferation assay using the WST-1 (4-[3-(4-iodophenyl)-2-(4-nitrophenyl)-2H-5-tetrazolio]-1, 3-benzene disulfonate) colorimetric assay by Roche Life Sciences®. Anticancer” for “Anticancer”

The nature of series [3]: Toxicity and safety screen, in vitro profiling. The text has this: This family of AML-therapeutic targets likewise has the flavone backbone (2-phenyl-1,4-benzopyrone) chemical structure, in this case more defined as shown below (see also FIG. 1B), or any pharmaceutically acceptable salt thereof: […]
Series [4] relates to THP-1 acute myeloid leukemia cell line. In words: WST-1 anticancer cell proliferation assay, THP-1. The note with it: Table 4; read-out: Acute Myeloid Leukemia cell lines THP-1 IC50. It counts as cell-based. As for the experimental part:
as §1
A general note: Tetrazolium dyes change colour on reduction, which living cells bring about.

Where “and” joins values, the source holds several entries; their conditions need not be identical. Identical values can stand only once. Like-named read-outs stand apart in the source and are kept apart here.

One may read the IC50 as the point on the concentration scale where inhibition reaches its midpoint.

For the compound `CO[C@@H]1[C@H](N(C)C(=O)c2ccccc2)C[C@H]2O[C@]1(C)n1c3ccccc3c3c4c(c5c6ccccc6n2c5c31)C(=O)NC4` [Midostaurin, reference compound], the 50% inhibitory concentration (IC50) in series [1] (Homo sapiens, MOLM-14) was 0.022 µM.

As to `COc1ccc(-c2cc(=O)c3c(O)cc(O)cc3o2)cc1` [FBLGS-73], the IC50 at FLT3(ITD) was 0.079 µM and 0.046 µM; on FLT3, 0.127 µM and 0.152 µM; in [1], 3.68 µM and 4.86 µM.

Regarding `COc1cc(-c2cc(=O)c3c(O)c(CC=C(C)C)c(O)cc3o2)ccc1O` [cannflavin B], in series [2], the “cytotoxicity against cancer cells” value is “not cytotoxic”.

For `COc1cc(-c2cc(=O)c3c(O)cc(O)cc3o2)ccc1O` [FBLGS-70], the “in-vivo efficacy on MV4-11 AML” value in the series with MV4-11 AML is listed as “significant in-vivo efficacy”. In addition, the IC50 is 1.25 µM with MV4-11 (Leukemia), 1.7 µM in series [1], greater than 100 µM in the series with Normal Bone marrow and greater than 100 µM in series [4]. Also, the “toxicity or safety screen issues” value in series [3] is reported as “no detectable toxicity or safety screen issues”.
